Experimental data as given in ChEMBL document CHEMBL1153137, “Improving the developability profile of pyrrolidine progesterone receptor partial agonists” (Bioorg Med Chem Lett, 2010).

Assays:
in vivo [1] = conditions: rat, iv
in vivo [2] = conditions: rat, po, 4.2 mg/kg
in vivo [3] = conditions: rat, iv; remark: listed apart in the source
in vivo [4] = conditions: rat, iv; remark: listed apart in the source
in vivo [5] = conditions: rat, iv; remark: listed apart in the source

SMILES: Cc1ccccc1CN(c1ccc(C#N)c(Cl)c1)[C@H]1CCN(S(C)(=O)=O)C1
- Vd (in vivo [1]): 12 L/kg
- bioavailability (in vivo [2]): 100%
- clearance (in vivo [3]): 98 mL/min/kg
- half-life (in vivo [4]): 1.6 h
- Cmax (in vivo [5]): 221 ng/mL
